Experimental findings from patent US20260182568A1, “DISINFECTANT AND PRESERVATIVE COMPOSITIONS” (BJBIOCHEM CO., LTD., priority 2023, published 2026) are described below.

Values after ≈ are worked out from the molar mass of the structure shown.

In one assay the test system is Escherichia coli. The assay can be described thus: Disk diffusion antibacterial test. It counts as cell-based. Background: Agar diffusion results depend on both activity and mobility in agar.
The test system of the next assay is Staphylococcus aureus. The assay can be described thus: Disk diffusion antibacterial test. It counts as cell-based.
Another assay relates to Pseudomonas aeruginosa. The assay is described as follows: Disk diffusion antibacterial test. Type of assay: cell-based.
For the next assay, the system named is Aspergillus brasiliensis. The assay can be described thus: Disk diffusion antibacterial test. It counts as cell-based.
The subject of another assay is Candida albicans. The assay can be described thus: Disk diffusion antibacterial test. Type of assay: cell-based.
The subject of the next assay is Malassezia furfur. The assay is described as follows: Sterilizing power (broth dilution MIC) of anti-dandruff hair care (antifungal) compositions.
In another assay the test system is Malassezia restricta. The description is as above.
In another assay the test system is Malassezia globosa. The assay is described as above.
A further assay relates to E. coli. The assay is described as follows: Broth dilution MIC test of antimicrobial and preservative compositions. It counts as cell-based, Escherichia coli. The settings on record: % only in method b353. How it is done: (§1) C. albicans was inoculated into Sabouraud dextrose broth and cultured at 25° C. for 24 hours. […] The liquid media used for E. coli, S. aureus, and P. aeruginosa (bacteria) were tryptic soy broth, and the liquid media used for C. albicans, and A. brasiliensis (fungi) were Sabouraud dextrose broth.
A general note: In broth dilution the organism is exposed to a series of concentrations in liquid medium.

The next assay concerns S. aureus. The description is as above. Type of assay: cell-based, Staphylococcus aureus. The settings on record: % only in method b353. How it is done:
as §1

In the next assay the test system is P. aeruginosa. Described as above. It counts as cell-based, Pseudomonas aeruginosa. The settings on record: % only in method b353. On the procedure:
as §1

The test system of a further assay is A. brasiliensis. Described as above. Type of assay: cell-based, Aspergillus brasiliensis. The settings on record: % only in method b353. On the procedure:
as §1

Another assay deals with C. albicans. The assay is described as above. The settings on record: % only in method b353. Type of assay: cell-based, Candida albicans. On the procedure: as §1
[1] abbreviates: comparison over mixing ratios of Formula 1 with PO, ZPT or CB.
[2] abbreviates: Test A (Formula 1 / Formula 2), Tables 2-3.
Where [3] appears, read: Test B (Formula 1 / Formula 3), Tables 16-17.
The mark [4] stands for this setting: Formula 1 mixed with climbazole (CB) at mixing ratio (%), broth dilution.
[5] abbreviates: Formula 1 mixed with zinc pyrithione (ZPT) at mixing ratio (%), broth dilution.

On to `CCCCCCCCCCCCN(CC(O)CO)CC(O)CO` (stereo not drawn) [3,3′-(dodecylimino)bispropane-1,2-diol], for which the “clear zone where strain growth was inhibited, E. coli” value in the assay with Escherichia coli (50 μl on disk, 1st repetition) was 2.5 mm; in the assay on Escherichia coli (50 μl on disk, 2nd repetition) it was 2.5 mm; with Escherichia coli (50 μl on disk, 3rd repetition), 3 mm; in the assay on Escherichia coli (Mean of three repetitions) it was 2.6 mm. Also, the “clear zone where strain growth was inhibited, S. aureus” value in the assay with Staphylococcus aureus (50 μl on disk, 1st repetition) was determined as 2 mm; in the assay with Staphylococcus aureus (50 μl on disk, 2nd repetition), 3 mm; with Staphylococcus aureus (50 μl on disk, 3rd repetition), 2.5 mm; with Staphylococcus aureus (Mean of three repetitions), 2.5 mm. The “clear zone where strain growth was inhibited, P. aeruginosa” value in the assay with Pseudomonas aeruginosa (50 μl on disk, 1st repetition) is listed as 1 mm; in the assay with Pseudomonas aeruginosa (50 μl on disk, 2nd repetition), 1.5 mm; with Pseudomonas aeruginosa (50 μl on disk, 3rd repetition) it was 1 mm; in the assay with Pseudomonas aeruginosa (Mean of three repetitions), 1.2 mm. For the same molecule, the “clear zone where strain growth was inhibited, A. brasiliensis” value in the assay with Aspergillus brasiliensis (50 μl on disk, 1st repetition) is recorded as 1.5 mm; with Aspergillus brasiliensis (50 μl on disk, 2nd repetition), 2 mm; in the assay with Aspergillus brasiliensis (50 μl on disk, 3rd repetition), 2 mm; in the assay on Aspergillus brasiliensis (Mean of three repetitions), 1.8 mm. For the same molecule, the “clear zone where strain growth was inhibited, C. albicans” value in the assay on Candida albicans (50 μl on disk, 1st repetition) is on record as 5 mm; with Candida albicans (50 μl on disk, 2nd repetition), 5 mm; in the assay on Candida albicans (50 μl on disk, 3rd repetition) it was 6 mm; in the assay on Candida albicans (Mean of three repetitions), 5.3 mm. Moreover, in the assay on Malassezia furfur (setting [1]), the “sterilizing effect against Malassezia furfur (in words)” value is reported as “lowest sterilizing effect”. Moreover, the “sterilizing effect against Malassezia restricta (in words)” value in the assay with Malassezia restricta (setting [1]) is listed as “lowest sterilizing effect”. Moreover, in the assay with Malassezia globosa (setting [1]), the “sterilizing effect against Malassezia globosa (in words)” value is “lowest sterilizing effect”.
As to `CCCCCCCCCCCCN(CC(O)CO)CC(O)CO` (stereo not drawn) [Comparative Example1, 3,3′-(dodecylimino)bispropane-1,2-diol], the “minimum inhibitory concentration (MIC), E. coli” value in the assay with E. coli (setting [2]) and in the assay with E. coli (setting [3]) was 0.1% in each case. The “minimum inhibitory concentration (MIC), S. Aureus” value in the assay with S. aureus (setting [2]) and with S. aureus (setting [3]) was 0.1% throughout. The “minimum inhibitory concentration (MIC), P. Aeruginosa” value in the assay on P. aeruginosa (setting [2]) and in the assay with P. aeruginosa (setting [3]) was 0.25% in each case. Moreover, the “minimum inhibitory concentration (MIC), A. brasiliensis” value in the assay on A. brasiliensis (setting [2]) and in the assay with A. brasiliensis (setting [3]) was 0.1% in each case. For the same molecule, the “minimum inhibitory concentration (MIC), C. albicans” value in the assay with C. albicans (setting [2]) and with C. albicans (setting [3]) was 0.05% throughout.
Regarding `CC(C)(C)C(=O)C(Oc1ccc(Cl)cc1)n1ccnc1` (stereo not drawn) [climbazole], the figures for the MIC in the assay on Malassezia furfur (setting [4]), in the assay with Malassezia restricta (setting [4]) and in the assay with Malassezia globosa (setting [4]) were 20 µg/mL, 4 µg/mL and 1 µg/mL, respectively.
For the molecule zinc pyrithione, the MIC – broadly, the smallest concentration in the dilution series that meets the test's criterion for growth inhibition – turned out to be 7 µg/mL in the assay on Malassezia furfur (setting [5]), 4 µg/mL with Malassezia restricta (setting [5]) and 1 µg/mL in the assay with Malassezia globosa (setting [5]).
Regarding `Cc1cc(CC(C)CC(C)(C)C)n(O)c(=O)c1` (stereo not drawn) [piroctone olamine], the MIC in the assay with Malassezia furfur (Malassezia furfur) turned out to be 30 µg/mL (≈ 126 µM); with Malassezia restricta (Malassezia restricta), 18 µg/mL (≈ 75.8 µM); against Malassezia globosa (Malassezia globosa), 4 µg/mL (≈ 16.9 µM).
